In US20160367705A1, “NANOPARTICLES COMPRISED OF SHELLS ASSOCIATED WITH CHARGED ENTITIES AND FORMED FROM MONOMERS AND METHODS OF MAKING AND USING NANOPARTICLES” (New York University, priority 2015, published 2016):

Assay: Dynamic light scattering (DLS) particle size
Format: physicochemical
Conditions: in chloroform; reverse micelles at w=11.9
Description: Samples for dynamic light scattering are prepared by dissolving 1 mg of sample into 4 mL of solvent. The solution was then filtered through a 0.45 μm syringe filter into quartz cuvette with a path length of 2 cm. The measurements are obtained on a Malvern Zetasizer Nano.
Solubility properties dictate that gluc anions reside in the aqueous polar region of the reverse micelle and remain associated with CDA through the pairing of carboxylate with the cationic […] head group of CDA.

Substance: Acetamido Cetyl Dimethyl Ammonium Glucuronate [CDA-gluc]
- average diameter (DLS): 14 nm
